Data: patent publication US11007206B2, “Cyclic boronic acid ester derivatives and therapeutic uses thereof” (Melinta Subsidiary Corp., priority 2012, dated 2021)
Where two headings read alike, the source gives them in different places.

Test system: multi-drug resistant strains of Enterobacteriaceae, including those producing serine carbapenemases
Test: Checkerboard MIC of Biapenem alone or in combination with Compound I at fixed concentrations (Example 4)
Assay type: cell-based
Method: The evaluation of Compound I in combination with the carbapenem antibiotic Biapenem against multi-drug resistant strains of Enterobacteriaceae, including those producing serine carbapenemases were also conducted. Antibiotic potentiation activity of Compound I was studied in checkerboard MIC experiments and time-kill assays. The MICs of Biapenem were […]) against characterized and engineered isolates producing various beta-lactamases, as well as in geographically diverse panels of multi-drug resistant strains of Enterobacteriaceae (including strains that express the most relevant beta-lactamases).

Question: How did the MIC (read-out: Biapenem MICs in the presence of Compound I, in the presence of 0.3 to 5 μg/ml of Compound I, characterized strains of Enterobacteriaceae with serine carbapenemases) turn out when `C[C@@H](O)[C@H]1C(=O)N2C(C(=O)[O-])=C(SC3Cn4cnc[n+]4C3)[C@H](C)[C@H]12` (stereo partly shown) [Biapenem] was run?
Answer: < 0.25 µg/mL

Question: What about the MIC (read-out: Biapenem MICs, Biapenem alone, KPC-producing strains including those expressing multiple classes of enzymes) of the same compound?
Answer: 8 to 64 µg/mL

Question: What about the MIC (read-out: Biapenem MICs, Biapenem alone, KPC-producing strains used in the time-kill studies) of the same compound?
Answer: 16 to 32 µg/mL

Question: And the MIC90 (read-out: MIC90 of Biapenem with Compound I)?
Answer: 0.5 µg/mL
